Measurements as given in ChEMBL document CHEMBL1201862, “PubChem BioAssay data set” (2004).
The source made the active and inactive calls. Cut-off read from the data, not from the text of the source, for most assays here: actives have a measured IC50 and inactives only a lower limit.

What was measured:
Format in all cases: functional
[1] = target: C-C chemokine receptor type 6 (Homo sapiens, UniProt P51684); test: analog antagonism of CCR6 beta-arrestin signaling – cell-based, luminescent beta-arrestin readout, SAR follow-up (AID 540334)
C-C chemokine receptor type 6, sequence (P51684 whole entry): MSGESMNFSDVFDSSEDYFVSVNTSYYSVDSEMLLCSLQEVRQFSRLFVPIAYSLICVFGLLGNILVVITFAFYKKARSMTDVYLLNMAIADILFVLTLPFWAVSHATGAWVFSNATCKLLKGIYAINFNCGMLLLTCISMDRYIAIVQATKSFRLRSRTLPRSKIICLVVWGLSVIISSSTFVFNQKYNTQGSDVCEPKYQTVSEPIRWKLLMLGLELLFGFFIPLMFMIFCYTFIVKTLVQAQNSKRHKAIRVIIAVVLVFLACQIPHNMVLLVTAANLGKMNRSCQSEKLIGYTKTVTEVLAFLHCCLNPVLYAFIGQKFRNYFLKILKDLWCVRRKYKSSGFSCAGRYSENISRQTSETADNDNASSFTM

[2] = target: DNA dC->dU-editing enzyme APOBEC-3A (Homo sapiens, UniProt P31941); test: A3A deaminase inhibition for selectivity – biochemical, dose response (AID 504722)
DNA dC->dU-editing enzyme APOBEC-3A, sequence (P31941 whole entry): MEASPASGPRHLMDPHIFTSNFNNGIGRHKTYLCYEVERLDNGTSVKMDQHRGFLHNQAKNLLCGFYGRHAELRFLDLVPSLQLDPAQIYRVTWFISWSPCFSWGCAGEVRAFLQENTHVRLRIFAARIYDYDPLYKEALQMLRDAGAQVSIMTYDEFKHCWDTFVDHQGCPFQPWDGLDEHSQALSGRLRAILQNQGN

[3] = target: C-X-C chemokine receptor type 5 (Homo sapiens, UniProt P32302); test: inhibition of CXCL13-driven CXCR5 beta-arrestin recruitment – cell-based, luminescence, CHO-K1 PathHunter, selectivity assay for CCR6 antagonist project, SAR follow-up (AID 540340)
C-X-C chemokine receptor type 5, sequence (P32302 whole entry, the tested form may be a part): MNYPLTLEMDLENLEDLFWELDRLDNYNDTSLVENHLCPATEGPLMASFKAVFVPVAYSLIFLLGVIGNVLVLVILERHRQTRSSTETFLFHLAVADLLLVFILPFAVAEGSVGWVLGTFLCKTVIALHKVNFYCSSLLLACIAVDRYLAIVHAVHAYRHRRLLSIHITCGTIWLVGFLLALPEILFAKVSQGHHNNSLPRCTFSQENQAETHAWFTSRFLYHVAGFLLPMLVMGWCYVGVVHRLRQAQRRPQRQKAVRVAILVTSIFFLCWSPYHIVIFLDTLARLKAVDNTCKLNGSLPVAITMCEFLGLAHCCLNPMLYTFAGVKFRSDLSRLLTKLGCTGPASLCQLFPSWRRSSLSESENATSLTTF

Apelin receptor = Apelin receptor (Homo sapiens, UniProt P35414); test: apelin receptor antagonists, arrestin read-out – cell-based, luminescent, enzyme-fragment complementation, selectivity assay for CCR6 antagonist project, SAR follow-up (AID 588359)
Apelin receptor, sequence (P35414 whole entry, the tested form may be a part): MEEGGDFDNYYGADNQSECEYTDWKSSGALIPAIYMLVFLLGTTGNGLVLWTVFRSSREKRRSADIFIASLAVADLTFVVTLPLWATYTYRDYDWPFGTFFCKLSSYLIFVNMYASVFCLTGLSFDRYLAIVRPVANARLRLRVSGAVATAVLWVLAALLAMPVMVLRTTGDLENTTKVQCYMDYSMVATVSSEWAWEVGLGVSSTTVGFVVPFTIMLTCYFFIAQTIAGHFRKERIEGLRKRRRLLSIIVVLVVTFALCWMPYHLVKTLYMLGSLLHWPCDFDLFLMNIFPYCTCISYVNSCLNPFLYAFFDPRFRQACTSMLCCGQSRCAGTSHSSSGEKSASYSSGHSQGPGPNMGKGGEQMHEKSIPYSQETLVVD

[4] = target: DNA dC->dU-editing enzyme APOBEC-3G (Homo sapiens, UniProt Q9HC16); test: Dose Response confirmation of small molecule APOBEC3G DNA Deaminase Inhibitors via a fluorescence-based single-stranded DNA deaminase assay. [Related pubchem assays (depositor defined):AID493012, AID493028]
DNA dC->dU-editing enzyme APOBEC-3G, sequence (Q9HC16 whole entry): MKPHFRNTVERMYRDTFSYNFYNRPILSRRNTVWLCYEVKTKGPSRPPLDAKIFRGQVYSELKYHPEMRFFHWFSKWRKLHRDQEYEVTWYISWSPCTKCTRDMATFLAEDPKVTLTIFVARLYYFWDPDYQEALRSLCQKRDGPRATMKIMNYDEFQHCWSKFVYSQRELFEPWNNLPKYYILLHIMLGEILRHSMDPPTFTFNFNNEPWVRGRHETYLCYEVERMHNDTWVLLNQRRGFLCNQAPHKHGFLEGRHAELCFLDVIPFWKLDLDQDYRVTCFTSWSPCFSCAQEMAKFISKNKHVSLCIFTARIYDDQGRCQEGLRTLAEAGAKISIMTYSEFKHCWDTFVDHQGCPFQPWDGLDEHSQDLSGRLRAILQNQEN

[5] = target: T1, Sentrin-specific protease 7 (Homo sapiens, UniProt Q9BQF6); test: inhibition of human SENP7 cleavage activity – biochemical, luminescence, SAR follow-up (AID 504497)
T1 sequence (Q9BQF6 whole entry): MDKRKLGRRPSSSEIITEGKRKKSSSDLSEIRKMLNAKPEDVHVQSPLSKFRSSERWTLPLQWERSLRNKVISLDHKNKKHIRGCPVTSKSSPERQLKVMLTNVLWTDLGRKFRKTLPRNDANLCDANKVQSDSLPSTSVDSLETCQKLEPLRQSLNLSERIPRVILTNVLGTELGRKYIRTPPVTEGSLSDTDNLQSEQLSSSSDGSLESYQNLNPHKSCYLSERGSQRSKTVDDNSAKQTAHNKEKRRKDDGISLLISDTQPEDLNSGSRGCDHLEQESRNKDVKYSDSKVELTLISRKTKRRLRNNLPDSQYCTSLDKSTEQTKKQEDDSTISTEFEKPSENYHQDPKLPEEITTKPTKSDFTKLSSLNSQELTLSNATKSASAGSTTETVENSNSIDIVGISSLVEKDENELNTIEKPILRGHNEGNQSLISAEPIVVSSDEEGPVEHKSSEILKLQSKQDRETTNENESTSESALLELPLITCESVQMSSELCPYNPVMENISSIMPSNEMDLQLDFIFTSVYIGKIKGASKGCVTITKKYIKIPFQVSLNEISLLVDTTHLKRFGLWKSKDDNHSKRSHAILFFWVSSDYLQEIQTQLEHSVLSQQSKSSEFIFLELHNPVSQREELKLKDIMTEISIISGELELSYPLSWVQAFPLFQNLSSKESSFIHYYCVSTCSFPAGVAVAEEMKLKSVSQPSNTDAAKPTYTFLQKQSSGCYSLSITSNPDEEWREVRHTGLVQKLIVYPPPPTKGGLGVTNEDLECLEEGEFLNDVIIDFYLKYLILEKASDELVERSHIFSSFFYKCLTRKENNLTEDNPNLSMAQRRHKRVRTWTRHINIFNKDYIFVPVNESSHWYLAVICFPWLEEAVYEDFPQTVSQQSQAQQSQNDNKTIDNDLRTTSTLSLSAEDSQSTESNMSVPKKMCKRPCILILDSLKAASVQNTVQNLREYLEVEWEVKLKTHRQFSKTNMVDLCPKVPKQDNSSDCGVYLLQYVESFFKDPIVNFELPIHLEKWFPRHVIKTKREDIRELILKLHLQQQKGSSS

[6] = target: T2, Sentrin-specific protease 8 (Homo sapiens, UniProt Q96LD8); test: inhibition of human SENP8 cleavage activity – biochemical, luminescence, SAR follow-up (AID 504501)
T2 sequence (Q96LD8 whole entry): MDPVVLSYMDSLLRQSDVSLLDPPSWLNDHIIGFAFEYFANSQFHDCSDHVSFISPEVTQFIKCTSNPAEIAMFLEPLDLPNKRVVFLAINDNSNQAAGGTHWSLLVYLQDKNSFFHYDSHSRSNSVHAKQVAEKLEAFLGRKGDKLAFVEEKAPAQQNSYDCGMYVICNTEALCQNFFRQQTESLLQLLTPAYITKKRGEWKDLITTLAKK

Caspase-3 = target: T3, Caspase-3 (Homo sapiens, UniProt P42574); test: SAR Analysis of small molecule inhibitors of Sentrin-specific proteases (SENPs) using a Caspase-3 Selectivity assay. [Related pubchem assays (depositor defined):AID2540, AID2599, AID434973, AID489001]
T3 sequence (P42574 whole entry): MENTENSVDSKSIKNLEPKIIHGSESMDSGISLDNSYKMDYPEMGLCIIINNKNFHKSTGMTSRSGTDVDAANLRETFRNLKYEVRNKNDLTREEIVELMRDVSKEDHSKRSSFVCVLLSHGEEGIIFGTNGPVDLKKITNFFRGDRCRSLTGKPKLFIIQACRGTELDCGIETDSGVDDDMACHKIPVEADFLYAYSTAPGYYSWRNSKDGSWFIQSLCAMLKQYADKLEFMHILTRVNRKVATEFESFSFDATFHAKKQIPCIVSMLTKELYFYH

[7] = target: T4, Sentrin-specific protease 6 (Homo sapiens, UniProt Q9GZR1); test: SAR Analysis of small molecule inhibitors of Sentrin-specific protease 6 (SENP6) using a Luminescent assay. [Related pubchem assays (depositor defined):AID2582, AID2599]
T4 sequence (Q9GZR1 whole entry): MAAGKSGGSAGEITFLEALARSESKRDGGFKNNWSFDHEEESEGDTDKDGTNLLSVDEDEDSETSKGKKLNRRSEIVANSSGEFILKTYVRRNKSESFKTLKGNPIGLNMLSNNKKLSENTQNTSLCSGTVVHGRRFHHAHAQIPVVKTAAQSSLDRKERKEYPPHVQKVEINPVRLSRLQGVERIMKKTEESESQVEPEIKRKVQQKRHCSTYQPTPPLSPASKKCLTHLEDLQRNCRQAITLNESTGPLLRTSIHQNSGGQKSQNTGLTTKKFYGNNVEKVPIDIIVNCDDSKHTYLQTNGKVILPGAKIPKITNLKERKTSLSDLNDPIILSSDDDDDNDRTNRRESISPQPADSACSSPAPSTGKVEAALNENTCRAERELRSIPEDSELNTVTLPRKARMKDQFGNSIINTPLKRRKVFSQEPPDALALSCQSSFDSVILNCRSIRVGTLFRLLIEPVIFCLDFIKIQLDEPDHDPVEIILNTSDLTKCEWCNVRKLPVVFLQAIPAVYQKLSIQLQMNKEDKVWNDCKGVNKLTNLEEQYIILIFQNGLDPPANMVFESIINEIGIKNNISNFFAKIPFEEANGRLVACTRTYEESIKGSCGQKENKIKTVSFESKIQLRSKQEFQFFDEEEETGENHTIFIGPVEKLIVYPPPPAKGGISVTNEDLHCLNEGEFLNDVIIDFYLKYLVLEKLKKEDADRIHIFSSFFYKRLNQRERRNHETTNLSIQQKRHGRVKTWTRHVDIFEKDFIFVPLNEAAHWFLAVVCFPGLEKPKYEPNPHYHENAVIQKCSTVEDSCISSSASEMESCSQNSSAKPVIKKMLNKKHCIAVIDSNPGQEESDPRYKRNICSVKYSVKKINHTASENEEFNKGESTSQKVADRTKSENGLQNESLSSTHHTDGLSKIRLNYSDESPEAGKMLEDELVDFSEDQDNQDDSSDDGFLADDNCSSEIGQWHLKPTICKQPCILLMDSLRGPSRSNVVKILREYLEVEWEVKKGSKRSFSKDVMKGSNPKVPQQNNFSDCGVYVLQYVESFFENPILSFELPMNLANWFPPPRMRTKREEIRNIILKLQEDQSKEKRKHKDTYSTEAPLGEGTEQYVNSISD

Structure (SMILES) | IC50 [1] | IC50 [2] | IC50 [3] | IC50 (Apelin receptor) | IC50 [4] | IC50 [5] | IC50 [6] | IC50 (Caspase-3) | IC50 [7]
O=C1C2C3C=CC(CO)(O3)C2C(=O)N1c1ccccc1-c1ccccc1 (centres undefined) | > 66.6 µM (inactive) | > 100 µM (inactive) | 52.7 µM (inactive) | > 66.6 µM (inactive) | 11.4 µM (active) | – | – | – | –
N#Cc1cccc(-c2nc(/C=C/c3ccc(F)cc3)no2)c1 | – | – | – | – | – | > 99 µM (inactive) | > 99 µM (inactive) | > 99 µM (inactive) | > 99 µM (inactive)
